{"source": "patent US9034826B2", "about": "“Use of epidermal growth factor for the morphofunctional restoration of peripheral nerves in diabetic neuropathy” (Centro de Ingenieria Genetica y Biotecnologia, priority 2006, dated 2015)", "key": {"diabetic rats [1]": {"tested_on": "diabetic rats", "test": "Sensory conduction velocity, reversion study (Example 2)", "format": "in vivo, Wistar rats", "conditions": "established diabetic neuropathy, 100 μg EGF in 1 ml i.p. 3 days a week for one month, day 120 after induction of diabetes", "experimental": "(§1) Distal supra-maximal stimulation in the sciatic-tibial route using bipolar electrodes is was used to study motor conduction. Determination of the conduction velocity in the sensory routes was carried out by applying a stimulus at a proximal point in the tail and measure it 3 cm away.\nThe aim of this study was to evaluate the neurorestoration effect of the pharmaceutical composition. Male Wistar rats between 200-250 grams of body is weight received a subcutaneous injection of streptozotocin at 75 mg/kg in sodium citrate buffer, and were allowed to evolve until 120 days after disease induction. All rats used in this experiment had shown sustained glucose levels above 15 mmol/L. Animals were handled and fed as previously described. A concurrent control group was set, where animals received saline instead of streptozotocin. […] After this period an electrophysiological characterization of all rats were done and animals were split in two random treatment groups:\nGroup II. Animals received the pharmaceutical composition with 100 μg of EGF in 1 ml, 3 days a week, by intraperitoneal route.\nTo check the effect of the pharmaceutical composition on the restoration of sensory and motor fibers the conduction velocity of an electric impulse was measured at day 120 after induction of diabetes, after treating the animals with the pharmaceutical composition or saline. […]"}, "Lipoprotein Lipase (LPL)": {"tested_on": "Lipoprotein Lipase (LPL)", "test": "Lipoprotein lipase (LPL) enzymatic activity in sciatic nerve fragments, prevention study (Example 1)", "format": "in vivo, Wistar rats", "experimental": "(§2) Male Wistar, with 200-250 grams of body weight, received a subcutaneous injection of streptozotocin, at 75 mg/kg in sodium citrate buffer. Water was then replaced by a 10% sucrose solution during the next 24 h, to prevent deaths caused by hypoglycemia. Glucose levels in blood were monitored every morning during the next 72 hours after the injection. Only animals with sustained glucose values above 15 mmol/L were used. Rats were housing at 4 per cage and fed in the conventional way. A concurrent group of other 80 rats received citrate buffer without streptozotocin and was handled in a similar fashion to the diabetic group. The average value for glycemia during the 72 hours in this group was 5.87 mmol/L.\n(§3) All treatments were conducted during 8 weeks, starting one week after streptozotocin injection. The composition used contained 75 μg of human recombinant EGF/ml. Several types of observations were conducted in the animals under study:\nFragments of the nerve from each animal were incubated together with 3 μg/ml heparin in Krebs-Ringer buffer at 37° C. for 50 minutes. Aliquots from these samples were then incubated in the presence of [^14C] triolein-phosphatidylcholine. ^14C labeled fatty acids were quantified by the classic methods. LPL activity was expressed in nanomoles of released fatty acids (RFA) per minute and gram of tissue."}, "sciatic nerve": {"tested_on": "sciatic nerve", "test": "Histomorphometric study on fragments of the sciatic nerve, prevention study (Example 1)", "format": "in vivo, Wistar rats", "conditions": "day 70 after induction of diabetes; for Number of blood vessels: 10 microscopic fields", "experimental": "as §2, §3\nOnce the treatment was concluded, animals were sacrificed at day 70 after induction of diabetes, 10 days after the last dose was given, and the analysis described above is was completed. Animals were sacrificed by an overdose of anesthesia and perfused with saline buffer pH 7.4. A total of ten animals per experimental group were included for histomorphometric studies, and an equivalent number of rats were used for biochemical determinations. In both systems the sciatic nerves from both limbs were dissected; fragments were kept at −70° C. until processed. The samples taken for histological and/or histomorphometric studies were stained with hematoxilin/eosin and toluidine blue. At least five fragments of the same nerve were quantitatively studied using MADIP program. The fragments were included in blocks of celloidine and gelatin, and those blocks were horizontal and transversally sliced. The following histological indicators were evaluated: • Total number of blood vessels (in epineural/perineural) in 10 microscopic fields using 10× as constant magnification in longitudinal cuts of the nerve. • Percentage of demyelinated fibers. Evaluated by averaging the values per microscopic field (×20, at least five fields). • Percentage of myelin or non-myelin fibers with lesions (dilated or distorted) per microscopic field (×20, at least five fields). • Percentage of endoneurial collagenization (moderated: 25 to 50%; severe: more than 50% of the endoneurial area in transversal slices, and at least three different sections."}, "right sciatic nerve": {"tested_on": "right sciatic nerve", "test": "Laser Doppler Perfusion Imaging of blood perfusion of a peripheral nerve, prevention study (Example 1)", "format": "in vivo, Wistar rats", "conditions": "diabetic rats, 75 μg EGF/ml, two months", "experimental": "as §2, §3\nThe right sciatic nerve of rats was used as a model. Ten animals were included for each one of the experimental groups. A similar number of non diabetic rats were used to calculate the reference values. A Laser Doppler Perfusion Imaging (LDPI) system was used. Data of perfusion in peripheral tissues to the nerve were programmed as zero values. Control animals received saline during two months before the measurement. […]"}, "diabetic rats [2]": {"tested_on": "diabetic rats", "test": "Sensory conduction velocity in the tail, prevention study (Example 1)", "format": "in vivo, Wistar rats", "conditions": "75 μg EGF/ml, day 60", "experimental": "as §2, §3\nFifteen animals were used in each experimental group. In diabetic neuropathy conduction velocity is generally diminished.\nas §1"}, "diabetic rats [3]": {"tested_on": "diabetic rats", "test": "Nociceptive threshold (NCT) pain test, prevention of diabetic neuropathy (Example 1)", "format": "in vivo, Wistar rats", "conditions": "75 μg EGF/ml", "experimental": "as §2, with “group.” for “group. The average value for glycemia during the 72 hours in this group was 5.87 mmol/L.”\nas §3\nThe pain test, by application of an increasing pressure in the tail, was carried out at days 28 and 56 after initiation of the treatment, using 10 animals per each one of the experimental groups. NCT, expressed in grams, was determined by using an Ugo Basile type analgesimeter to apply a gradually increasing pressure to the tail of the animals until they developed a withdrawal reflex. In human diabetic neuropathy the nociceptive threshold is reduced."}, "diabetic animals": {"tested_on": "diabetic animals", "test": "Findings in diabetic animals after injection or infiltration of the composition (summary)", "format": "in vivo", "conditions": "after three systemic injections or local infiltrations at the periphery of the nerve trunks"}, "[4]": {"conditions": "Treatment group 1 (once weekly i.p., 8 weeks)"}, "[5]": {"conditions": "Treatment group 3 (three times a week i.p., 8 weeks)"}, "[6]": {"conditions": "1 ml i.p. once weekly (Treatment group 1)"}, "[7]": {"conditions": "1 ml i.p. three times a week (Treatment group 3)"}}, "data": [{"substance": "EGF containing pharmaceutical composition: Composition with human recombinant EGF: 75 μg/ml in Example 1, 100 μg in 1 ml in Example 2, given intraperitoneally", "values": [{"measurement": "Velocity (sensitive conduction velocity, SCV)", "setting": "diabetic rats [1]", "result": "59.42 ± 3.35", "unit": "m/s"}, {"measurement": "LPL activity in the sciatic nerve", "setting": "Lipoprotein Lipase (LPL); [4]", "result": "3.75 ± 2.2", "unit": "nmoles RFA/min/g"}, {"measurement": "LPL activity in the sciatic nerve", "setting": "Lipoprotein Lipase (LPL); [5]", "result": "5.41 ± 1.83", "unit": "nmoles RFA/min/g"}, {"measurement": "Number of blood vessels", "setting": "sciatic nerve; [4]", "result": "111.33 ± 14.5"}, {"measurement": "% of collagenized area", "setting": "sciatic nerve; [4]", "result": "42.69 ± 14.71", "unit": "%"}, {"measurement": "% of demyelinated fibers", "setting": "sciatic nerve; [4]", "result": "51.2 ± 17.94", "unit": "%"}, {"measurement": "% of fibers with lesions", "setting": "sciatic nerve; [4]", "result": "60.12 ± 11", "unit": "%"}, {"measurement": "Number of blood vessels", "setting": "sciatic nerve; [5]", "result": "158.6 ± 26.12"}, {"measurement": "% of collagenized area", "setting": "sciatic nerve; [5]", "result": "13.45 ± 11.82", "unit": "%"}, {"measurement": "% of demyelinated fibers", "setting": "sciatic nerve; [5]", "result": "35.56 ± 12.18", "unit": "%"}, {"measurement": "% of fibers with lesions", "setting": "sciatic nerve; [5]", "result": "41.38 ± 10.26", "unit": "%"}, {"measurement": "Laser Doppler perfusion of the sciatic nerve", "setting": "right sciatic nerve; [6]", "result": "653.4 ± 41.9", "unit": "LDPI Units"}, {"measurement": "Laser Doppler perfusion of the sciatic nerve", "setting": "right sciatic nerve; [7]", "result": "988.7 ± 80.3", "unit": "LDPI Units"}, {"measurement": "SCV (sensitive conduction velocity)", "setting": "diabetic rats [2]; [6]", "result": "38 ± 6", "unit": "m/s"}, {"measurement": "SCV (sensitive conduction velocity)", "setting": "diabetic rats [2]; [7]", "result": "44 ± 9", "unit": "m/s"}, {"measurement": "NCT", "setting": "diabetic rats [3]; 1 ml i.p. once weekly (Treatment group 1), day 28", "result": "125 ± 18", "unit": "grams"}, {"measurement": "NCT", "setting": "diabetic rats [3]; 1 ml i.p. three times a week (Treatment group 3), day 28", "result": "123 ± 16", "unit": "grams"}, {"measurement": "NCT", "setting": "diabetic rats [3]; 1 ml i.p. three times a week (Treatment group 3), day 56", "result": "121 ± 22", "unit": "grams"}, {"measurement": "Axon edema", "setting": "diabetic animals", "result": "Reductions in axon edema"}, {"measurement": "Axonal neurofilaments", "setting": "diabetic animals", "result": "Preservation of axonal neurofilaments"}, {"measurement": "Conduction velocity of motor fibers", "setting": "diabetic animals", "result": "Normalization of conduction velocity of motor fibers"}, {"measurement": "Endoneurial collagenization", "setting": "diabetic animals", "result": "Diminution of endoneurial collagenization"}, {"measurement": "Integrity of the myelin sheath of the sciatic nerve", "setting": "diabetic animals", "result": "Improvement in the integrity of the myelin sheath of the sciatic nerve"}, {"measurement": "Vasa nervorum", "setting": "diabetic animals", "result": "Integrity of the vasa nervorum"}]}]}
